From US20240376035A1, “METHOD FOR PRODUCING HESPERETIN DIHYDROCHALCONE” (SYMRISE AG, priority 2022, published 2024)

Columns and labels:
trained expert panel = assay: Sensory descriptive analysis of ice tea prototypes in different bases (Example 15); format: in vivo; conditions: for ANOVA (sweetness factor score): 10 ppm hesperetin dihydrochalcone and/or 3 ppm hesperetin; for effect on the sweetness factor: main and interaction effects in different bases, all sign. p<0.0001
Excerpt: Based on an experimental design, 86 ice tea prototypes (drinkable preparations) were created that systematically varied regarding different sources of sweetness conveyed by sugars (e.g. HFCS (high fructose corn syrup), invert sugar syrup), sweeteners (Reb A, Reb D, Reb M, sucralose, acesulfame K) as well as hesperetin dihydrochalcone (HC) and hesperetin (HT) (the results are depicted in Table 2).
In order to investigate the effect of HT and HC on perceived sweetness dimensions, the 86 samples were profiled (sensory descriptive analysis) by a trained expert panel consisting of 12 panelists. The panelists were trained on an ice tea language with focus on sweetness attributes. Each attribute was scored on an unstructured line scale (10 cm) for its perceived intensity. To ensure high data reliability, every sample was tested twice. The sweetness attributes “sweetness onset”, “sweetness overall intensity” and “sweetness long-lastingness” were aggregated to a so-called sweetness factor using factor analysis (principal component analysis with VARIMAX rotation). The sweetness factor score runs from neg. infinity to positive infinity. By applying statistical modelling (JMP software: fit model: standard least squares, Analysis of Variance: DF 86, F 19.6907, p<0.0001; Rsquare 0.972) all significant main and two-way interaction effects were identified amongst which HC (p<0.0001), HT (p<0.0001) and the interaction of HC and HT (p<0.0001) were identified. These main and interaction effects were further tested in different bases (see table 2) using ANOVA, p<0.05; post hoc test: LSD.

[1] = preparations having a high content of acid such as lemonades or fruit juices; cited from earlier work
[2] = Acesulfame K Ice tea Base, 60 ppm
[3] = HFCS Ice tea Base, 2 wt. % High Fructose corn syrup
[4] = Invert Sugar Syrup Ice tea Base, 2 wt. % invert sugar syrup
[5] = Reb A Ice tea Base, 60 ppm rebaudioside A
[6] = Reb A/Reb D Ice tea Base, 60 ppm rebaudioside A/60 ppm rebaudioside D
[7] = Reb A/Reb M Ice tea Base, 60 ppm rebaudioside A/45 ppm rebaudioside M
[8] = Reb M/Reb D Ice tea Base, 45 ppm rebaudioside M/60 ppm rebaudioside D
[9] = Sucralose Ice tea Base, 100 ppm sucralose

SMILES	ANOVA (sweetness factor score) (trained expert panel; [2])	ANOVA (sweetness factor score) (trained expert panel; [3])	ANOVA (sweetness factor score) (trained expert panel; [4])	ANOVA (sweetness factor score) (trained expert panel; [5])	ANOVA (sweetness factor score) (trained expert panel; [6])	ANOVA (sweetness factor score) (trained expert panel; [7])	ANOVA (sweetness factor score) (trained expert panel; [8])	ANOVA (sweetness factor score) (trained expert panel; [9])	ANOVA (sweetness factor score) (trained expert panel; Sugar Free Ice tea Base)	effect on the sweetness factor (trained expert panel)	effectivity as intensifier of the sweet flavour [1]
COc1ccc(CCC(=O)c2c(O)cc(O)cc2O)cc1O [Hesperetin dihydrochalcone]	−0.1	−0.9	−1	−0.5	−0.1	0	−0.3	−0.8	−1.3	positive effect	
COc1ccc([C@@H]2CC(=O)c3c(O)cc(O)cc3O2)cc1O [Hesperetin, hesperetin]	−2.4	−3.2	−3.3	−2.8	−2.4	−2.3	−2.6	−3.1	−3.6	smallest positive effect	diminished effectivity
